Data from patent US10294212B2 (CURADEV PHARMA PRIVATE LTD., priority 2013, dated 2019).
Structures can show the parent of a compound that is named as a salt.

Legend:
[1] = target: Human indoleamine 2,3-dioxygenase1 (hIDO1) (Homo sapiens (Human), UniProt P14902); experiment: In-vitro IDO1 enzyme assay (conversion of L-tryptophan to KYN); assay type: biochemical; conditions: read-out: IC50 (IDO1) Enz
Source text: Human indoleamine 2,3-dioxygenasel (hIDO1) catalyzes the oxidative cleavage of the pyrrole ring of the indole nucleus of tryptophan to yield N-formylkynurenine which can be converted to kynurenine (KYN) by deformylation. hIDO1 with an N-terminal His tag, expressed and purified from E. coli cells was procured from either Enzo LifeScienccs, NY, USA). Unless otherwise stated, all materials were procured from Sigma Aldrich, Mo., USA.
The assay monitoring the conversion of L-tryptophan to KYN was carried out as follows. hIDO1 (10 nM) was incubated with tryptophan (30 μM) in the presence of ascorbic acid (20 mM), methylene blue (10 μM) and catalase (100 μg/mL) in potassium phosphate buffer (50 mM; pH 6.5) at 37C for 30 min. The reaction was terminated with 30% trichloroacetic acid (TCA) and further incubated at 65C for 15 min to fully convert N-formylkynurenine to KYN. The reaction mixture was then centrifuged to remove sediments and the KYN in the supernatant was estimated by UV-visible absorption spectroscopy at 360 nm using a Waters HPLC system fitted with a C-18 column or by LC/MS/MS. See, Sono, 1980, J. Biol. Chem., 255:1339-1345, which is herein incorporated by reference.
Percent inhibition at each concentration of test compounds was determined by estimating the decrease in KYN with reference to the reaction control with 1% DMSO vehicle. Data were analyzed using nonlinear regression to generate IC50 values using Graph Pad Prism® 5.

[2] = target: Human TDO (hTDO)-transfected CHO-K1 cells (Homo sapiens (Human), UniProt P48775); experiment: CHO-K1 cell based TDO assay; conditions: hTDO cellular assay
Procedure: Human TDO (hTDO)-transfected CHO-K1 cells were used to identify test compounds that inhibit TDO activity and reduce Kynurenine production. CHO-K1 cells (ATCC) were cultured in DMEM supplemented with sodium bicarbonate (2.1 g/L), HEPES (4.1 g/L), L-glutamine (2 mM), non-essential amino acid (84 mg/L) and fetal bovine serum (10%) and maintained at 95% humidity and 5% CO2 in a 37° C. incubator. The TDO gene (TDO2) (Accession number NM_005651.1) was purchased from Origene (USA) and stably expressed in CHO-Kl cells using the expression vector pcDNA4/Myc-HisB Hygro (Life Technologies, USA). TDO-expressing clones were identified based on the kynurenine production by the cells. Expanded clones were used for assay as described below. Unless otherwise stated, all materials were procured from Sigma.
hTDO transfected CHO-K1 cells (0.05 million/well) were seeded in a 96-well plate and maintained overnight in DMEM containing 10% FBS (200 μL) at 95% humidity and 5% CO2 in a 37° C. incubator. The following day, cells were washed and incubated with test compounds (typically 31 μM to 10 nM, final volume 150 μL) in Hanks Balanced Salt Solution (HBSS) containing 80 μM L-tryptophan for 2 hours. Supernatant (150 μL) from the cells was treated with 30% TCA ([…]) to precipitate proteins. Supernatants were further incubated at 65° C. for 15 min to convert N-formylkynurenine to kynurenine. KYN in the supernatant was measured by LC/MS/MS using an API4000 mass spectrometer (Applied Biosystems) coupled to a Shimadzu Prominence LC system fitted with a C18 column.
Percent inhibition of the test compounds was determined by measuring the decrease in KYN as compared to the reaction control (DMSO vehicle). IC50 values were calculated using Graph Pad Prism® 5 as described above.

Sequence of Human indoleamine 2,3-dioxygenase1 (hIDO1) (P14902 whole entry): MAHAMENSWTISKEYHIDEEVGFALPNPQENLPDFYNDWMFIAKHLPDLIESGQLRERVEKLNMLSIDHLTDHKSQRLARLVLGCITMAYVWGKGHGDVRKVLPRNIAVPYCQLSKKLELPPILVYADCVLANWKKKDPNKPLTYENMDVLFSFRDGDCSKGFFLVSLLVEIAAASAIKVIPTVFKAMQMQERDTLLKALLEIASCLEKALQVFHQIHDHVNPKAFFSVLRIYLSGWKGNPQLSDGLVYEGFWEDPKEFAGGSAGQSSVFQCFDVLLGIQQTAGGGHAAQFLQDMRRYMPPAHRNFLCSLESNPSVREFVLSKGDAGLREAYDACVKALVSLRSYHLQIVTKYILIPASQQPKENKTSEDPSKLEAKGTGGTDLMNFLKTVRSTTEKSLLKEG
Sequence of Human TDO (hTDO)-transfected CHO-K1 cells (P48775 whole entry): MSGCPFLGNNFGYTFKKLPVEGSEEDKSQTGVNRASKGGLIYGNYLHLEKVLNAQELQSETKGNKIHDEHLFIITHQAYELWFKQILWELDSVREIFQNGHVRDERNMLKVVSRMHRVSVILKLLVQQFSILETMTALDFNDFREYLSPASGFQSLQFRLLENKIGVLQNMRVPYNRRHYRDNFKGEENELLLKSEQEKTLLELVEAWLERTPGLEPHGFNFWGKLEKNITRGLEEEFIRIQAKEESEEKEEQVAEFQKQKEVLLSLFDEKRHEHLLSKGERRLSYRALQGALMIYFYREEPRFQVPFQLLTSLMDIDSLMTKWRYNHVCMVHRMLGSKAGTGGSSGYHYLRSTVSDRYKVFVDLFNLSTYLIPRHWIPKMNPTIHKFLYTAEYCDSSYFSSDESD

Row | SMILES | IC50 [1] | IC50 [2]
1 | CCOC(=O)Nc1oc2c(-c3ccc(C(N)=O)cc3)nccc2c1Nc1ccc(F)c(Cl)c1 [Compound 157, Ethyl (7-(4-carbamoylphenyl)-3-((3-chloro-4-fluorophenyl)amino)furo[2,3-c]pyridin-2-yl)carbamate] | > 1000 nM | > 2000 nM
2 | Nc1oc2cnccc2c1Nc1cccc(CC2CCC2)c1 [Compound 89, N^3-(3-(Cyclobutylmethyl)phenyl)furo[2,3-c]pyridine-2,3-diamine] | > 1000 nM | > 2000 nM
3 | CCOC(=O)Nc1oc2c(-c3ccncc3)nccc2c1N(C(=O)OCC)c1ccc(F)c(C(F)(F)F)c1 [Compound 193, Ethyl (2-((ethoxycarbonyl)amino)-7-(pyridin-4-yl)furo[2,3-c]pyridin-3-yl)(4-fluoro-3-(trifluoromethyl)phenyl)carbamate] | > 1000 nM | > 2000 nM
4 | Cc1cc(-c2cccc3c(Nc4ccccc4)c(N)sc23)ccn1 [Compound 265, 7-(2-Methylpyridin-4-yl)-N^3-phenylbenzo[b]thiophene-2,3-diamine] | < 200 nM | 500 to 2000 nM
5 | Nc1oc2cncc(Cl)c2c1Nc1ccc(F)c(Cl)c1 [Compound 57, 4-Chloro-N^3-(3-chloro-4-fluoro-phenyl)-furo[2,3-c]pyridine-2,3-diamine] | > 1000 nM | 500 to 2000 nM
6 | CC(C)Oc1cc2c(Nc3ccc(F)c(Cl)c3)c(N)oc2c(-c2ccccc2)n1 [Compound 107, N^3-(3-Chloro-4-fluorophenyl)-5-isopropoxy-7-phenylfuro[2,3-c]pyridine-2,3-diamine] | > 1000 nM | > 2000 nM
7 | CC(C)(C)c1cccc(Nc2c(N)oc3cnccc23)c1 [Compound 61, N^3-(3-(tert-Butyl)phenyl)furo[2,3-c]pyridine-2,3-diamine] | > 1000 nM | > 2000 nM
8 | [NH]c1sc2ccc(Cl)cc2c1Nc1ccc(F)c(C(F)(F)F)c1 [Compound 129, hydrochloride] | 200 to 1000 nM | > 2000 nM
9 | Nc1oc2cnccc2c1Nc1ccc(Cl)cc1Cl [Compound 7, N^3-(2,4-Dichlorophenyl)furo[2,3-c]pyridine-2,3-diamine] | > 1000 nM | > 2000 nM
10 | Nc1oc2cnccc2c1Nc1ccc(F)c(Cl)c1Cl [Compound 45, N^3-(2,3-Dichloro-4-fluorophenyl)furo[2,3-c]pyridine-2,3-diamine] | > 1000 nM | > 2000 nM
11 | N#Cc1nccc2c(Nc3ccc(F)c(Cl)c3)c(NC(=O)OCc3ccccc3)oc12 [Compound 155, Benzyl (3-((3-chloro-4-fluorophenyl)amino)-7-cyanofuro[2,3-c]pyridin-2-yl)carbamate] | > 1000 nM | 500 to 2000 nM
12 | Nc1oc2cnccc2c1Nc1cccc2c1CCCC2 [Compound 63, N^3-(5,6,7,8-Tetrahydronaphthalen-1-yl)furo[2,3-c]pyridine-2,3-diamine] | > 1000 nM | > 2000 nM
13 | N#Cc1cccc(Nc2c(N)oc3cnccc23)c1F [Compound 28, 3-((2-Aminofuro[2,3-c]pyridin-3-yl)amino)-2-fluorobenzonitrile] | > 1000 nM | > 2000 nM
14 | Nc1sc2ccccc2c1Oc1cccc(Cl)c1 [Compound 127, 3-(3-Chlorophenoxy)benzo[b]thiophen-2-amine hydrochloride] | > 1000 nM | > 2000 nM
15 | COC(=O)Nc1oc2cnccc2c1N(C(=O)OC)c1ccc(F)c(Cl)c1 [Compound 144, Methyl (3-chloro-4-fluorophenyl)(2-((methoxycarbonyl)amino)furo[2,3-c]pyridin-3-yl)carbamate] | > 1000 nM | > 2000 nM
16 | CCOC(=O)Nc1oc2c(I)nccc2c1N(C(=O)OCC)c1ccc(F)c(Cl)c1 [Compound 156, Ethyl (3-chloro-4-fluorophenyl)(2-((ethoxycarbonyl)amino)-7-iodofuro[2,3-c]pyridin-3-yl)carbamate] | > 1000 nM | > 2000 nM

Row | SMILES | IC50 [1] | IC50 [2]
17 | Nc1oc2cnccc2c1Nc1ccc(F)cc1Cl [Compound 30, N^3-(2-Chloro-4-fluorophenyl)furo[2,3-c]pyridine-2,3-diamine] | > 1000 nM | 500 to 2000 nM
18 | Cc1cc(-c2nccc3c(Nc4ccccc4N4CCCCC4)c(N)oc23)ccn1 [Compound 242, 7-(2-Methylpyridin-4-yl)-N^3-(2-(piperidin-1-yl)phenyl)furo[2,3-c]pyridine-2,3-diamine] | > 1000 nM | > 2000 nM
19 | CC(C)(C)c1cc(Nc2c(N)oc3cnccc23)cc(C(C)(C)C)c1 [Compound 32, N^3-(3,5-Di-tert-butylphenyl)furo[2,3-c]pyridine-2,3-diamine] | > 1000 nM | 500 to 2000 nM
20 | Nc1oc2cnccc2c1Nc1ccccc1N1CCCCC1 [Compound 24, N^3-(2-(Piperidin-1-yl)phenyl)furo[2,3-c]pyridine-2,3-diamine] | > 1000 nM | > 2000 nM
21 | Nc1oc2cnccc2c1Nc1cccc(-c2ccccc2)c1 [Compound 53, N^3-([1,1′-Biphenyl]-3-yl)furo[2,3-c]pyridine-2,3-diamine] | > 1000 nM | > 2000 nM
22 | Nc1oc2cnccc2c1Nc1ccc(Oc2ccccc2)cc1 [Compound 29, N^3-(4-Phenoxyphenyl)furo[2,3-c]pyridine-2,3-diamine] | > 1000 nM | > 2000 nM
23 | Cc1cc(-c2cccc3c(Nc4ccc(F)cc4)c(N)sc23)ccn1 [Compound 266, N^3-(4-Fluorophenyl)-7-(2-methylpyridin-4-yl)benzo[b]thiophene-2,3-diamine] | < 200 nM | 500 to 2000 nM
24 | Nc1oc2cnccc2c1Nc1ccc(Cl)cc1 [Compound 17, N^3-(4-Chlorophenyl)furo[2,3-c]pyridine-2,3-diamine] | > 1000 nM | 500 to 2000 nM
25 | Nc1oc2cnccc2c1Nc1cccc(C2CCCCC2)c1 [Compound 88, N^3-(3-Cyclohexylphenyl)furo[2,3-c]pyridine-2,3-diamine] | > 1000 nM | 500 to 2000 nM
26 | Cc1ncc(CO)c2c(Nc3ccc(F)c(Cl)c3)c(N)oc12 [Compound 56, (2-amino-3-((3-chloro-4-fluorophenyl)amino)-7-methylfuro[2,3-c]pyridin-4-yl)methanol] | > 1000 nM | > 2000 nM
27 | Nc1oc2cnccc2c1Nc1ccc(Cc2ccccc2)cc1 [Compound 23, N^3-(4-Benzylphenyl)furo[2,3-c]pyridine-2,3-diamine] | > 1000 nM | 500 to 2000 nM
28 | N#Cc1ccc2c(Nc3ccc(F)c(Cl)c3)c(N)sc2c1 [Compound 136, 2-Amino-3-((3-chloro-4-fluorophenyl)amino)benzo[b]thiophene-6-carbonitrile] | > 1000 nM | > 2000 nM
29 | CCOC(=O)Nc1oc2cnccc2c1N(C(=O)OCC)c1ccc(F)c(Cl)c1 [Compound 142, Ethyl (3-chloro-4-fluorophenyl)(2-((ethoxycarbonyl)amino)furo-[2,3-c]pyridin-3-yl)carbamate] | > 1000 nM | > 2000 nM
30 | Nc1sc2ccccc2c1Nc1ccc(F)c(C(F)(F)F)c1 [Compound 128, N^3-(4-Fluoro-3-(trifluoromethyl)phenyl)benzo[b]thiophene-2,3-diamine] | < 200 nM | > 2000 nM
31 | N#Cc1ccc(Nc2c(N)oc3cnccc23)cc1 [Compound 39, 4-((2-Aminofuro[2,3-c]pyridin-3-yl)amino)benzonitrile] | > 1000 nM | 500 to 2000 nM
32 | Nc1oc2cnccc2c1Nc1ccc(Cl)c(Cl)c1Cl [Compound 31, N^3-(2,3,4-Trichlorophenyl)furo[2,3-c]pyridine-2,3-diamine] | > 1000 nM | > 2000 nM
